Laboratory results: ChEMBL document CHEMBL1221261, “Fluorescent retinoid X receptor ligands for fluorescence polarization assay” (Bioorg Med Chem Lett, 2010)
Activity calls are given as the source filed them. The calls are words filed in the database; no cut-off is given here.

Legend:
[1] = molecular target: T1, Retinoic acid receptor RXR-alpha (Homo sapiens) (UniProt P19793); experiment: Agonist activity at human RXRalpha expressed in […] cells at 1 uM by luciferase reporter gene assay; format: functional, cell-based; details: COS-7
T1 sequence (whole entry): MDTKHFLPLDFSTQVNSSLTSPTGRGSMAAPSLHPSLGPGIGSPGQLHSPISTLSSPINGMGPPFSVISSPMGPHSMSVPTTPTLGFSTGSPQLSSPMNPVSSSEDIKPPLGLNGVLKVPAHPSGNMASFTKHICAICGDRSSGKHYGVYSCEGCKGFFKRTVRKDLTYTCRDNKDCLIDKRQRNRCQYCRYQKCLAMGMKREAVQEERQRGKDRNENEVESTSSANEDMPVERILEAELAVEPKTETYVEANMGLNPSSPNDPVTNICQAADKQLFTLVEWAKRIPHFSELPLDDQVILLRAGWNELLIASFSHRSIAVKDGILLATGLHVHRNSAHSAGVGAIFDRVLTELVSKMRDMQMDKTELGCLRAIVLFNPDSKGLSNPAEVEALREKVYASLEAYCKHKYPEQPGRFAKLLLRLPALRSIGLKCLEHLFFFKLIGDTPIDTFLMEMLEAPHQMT

[2] = molecular target: T2, Retinoic acid receptor RXR-alpha (Homo sapiens, UniProt P19793); experiment: (§1) Agonist activity at human RXRalpha expressed in […] cells by luciferase reporter gene assay; format: functional, cell-based, COS-7
T2 sequence (P19793 whole entry): T1 sequence (whole entry)

[3] = molecular target: T1, Retinoic acid receptor RXR-alpha (Homo sapiens); experiment: as §1; format: functional, cell-based; details: COS-7

Row | SMILES | Activity [1] | EC50 [2] [nM] | Activity [3]
1 | CCN(c1ccc(C(=O)O)cn1)c1ccc2c(C(F)(F)F)cc(=O)n(CC(C)C)c2n1 | Active | 1000 | –
2 | CCN(c1ccc(C(=O)O)cn1)c1ccc2c(C(F)(F)F)cc(=O)n(C)c2n1 | – | 1000 | –
3 | CCN(c1ccc(C(=O)O)cn1)c1ccc2c(C)cc(=O)n(C)c2n1 | – | – | inactive
4 | CCN(c1ccc(C(=O)O)cn1)c1ccc2c(C(F)(F)F)cc(=O)n(CC)c2n1 | – | 1000 | –
